From patent publication US12594267B2, “Capsid inhibitors for the treatment of HIV” (Gilead Sciences, Inc., priority 2018, dated 2026)
Where two headings read alike, the source gives them in different places.

Test: PK after subcutaneous administration of solutions in rats
Format: in vivo, Wistar Han rat
Conditions: for Plasma concentration: 0 h
Method: Formulations containing the compound of Formula (Ia) were prepared as aqueous solutions or oral formulations and administered subcutaneously to rats, dogs, cynomolgus monkey, and/or rhesus monkey.
A solution of the compound of Formula (Ia) in 10% ethanol, 13% water, and 77% PEG 200 (400 mg/mL) was prepared. The solution was administered subcutaneously to dogs at a dose of 12 mg/kg and rats at a dose of 50 mg/kg and the pharmacokinetic (PK) profile was determined. […] In both species, plasma concentrations of the compound of Formula (Ia) were maintained above the target trough concentration of 20 nM (corresponding to an IQ of 5) for at least 84 days (12 weeks).
A solution of the free acid of the compound of Formula (Ia) in 15% water and 85% PEG 300 (300 mg/mL) was prepared. The solution was administered subcutaneously to male Wistar Han rats at a dose level of 50 mg/kg and dose volume of 0.167 mL/kg and the pharmacokinetic (PK) profile was determined.
A 300 mg/ml solution of a compound of Formula (Ia) having 9.8 w/w % water, 65.0 w/w % PEG 300, and 25.2 w/w % of the compound of Formula (Ia) was prepared. The solution was administered subcutaneously to rats at a dose of 50 mg/kg and to dogs at a dose of 12 mg/kg and the pharmacokinetic (PK) profile was determined. […] In the rat, plasma concentrations of the compound of Formula (Ia) were maintained above the target trough concentration of 20 nM for at least 168 days (24 weeks). In the dog, plasma concentrations of the compound of Formula (Ia) were maintained above the target trough concentration of 20 nM for at least 84 days (12 weeks).
(§1) A 150 mg/ml solution of a compound of Formula (Ia) having 27.92 w/w % water, 58.04 w/w % PEG 300, 13.47 w/w % of a compound of Formula (Ia), and 1.1 w/w % NaOH was prepared. The solution was administered subcutaneously to rats at a dose of 50 mg/kg and to dogs at a dose of 12 mg/kg and the pharmacokinetic (PK) profile was determined. […] In the rat, plasma concentrations of the compound of Formula (Ia) were maintained above the target trough concentration of 20 nM for at least 126 days (18 weeks). In the dog, plasma concentrations of the compound of Formula (Ia) were maintained above the target trough concentration of 20 nM for at least 56 days (8 weeks).
as §1, with “300” for “150”, “23.2” for “27.92”, “50.0” for “58.04”, “25.7” for “13.47”
A 50 mg/ml solution of a compound of Formula (Ia) having 30.07 w/w % water, 64.40 w/w % PEG 300, 4.68 w/w % of a sodium salt of the compound of Formula (Ia), and 0.85 w/w % poloxamer 188 was prepared. The solution was administered subcutaneously to rats at a dose of 50 mg/kg and to dogs at a dose of 6 mg/kg and the pharmacokinetic (PK) profile was determined. […] In the rat, plasma concentrations of the compound of Formula (Ia) were maintained above the target trough concentration of 20 nM for at least 28 days (4 weeks). In the dog, plasma concentrations of the compound of Formula (Ia) were maintained above the target trough concentration of 20 nM for at least 14 days (2 weeks).
A 75 mg/ml solution of a compound of Formula (Ia) having 29.21 w/w % water, 62.55 w/w % PEG 300, 6.97 w/w % of a sodium salt of the compound of Formula (Ia), and 1.68 w/w % poloxamer 188 was prepared. The solution was administered subcutaneously to rats at a dose of 50 mg/kg and to dogs at a dose of 6 mg/kg and the pharmacokinetic (PK) profile was determined. […]

[1] = male, Wistar Han, rat, plasma, sc, 50 mg/kg, rat #3, SC 50 mg/kg, 300 mg/mL in 15% water/85% PEG 300
[2] = male, Wistar Han, rat, plasma, sc, 50 mg/kg, rat mean, n=3, SC 50 mg/kg, 300 mg/mL in 15% water/85% PEG 300
[3] = rat, SC 50 mg/kg, 75 mg/mL solution (w/w %: 29.21 water, 62.55 PEG 300, 6.97 sodium salt of Formula (Ia), 1.68 poloxamer 188), mean ± SD, n=3
[4] = rat, SC 50 mg/kg, 125 mg/mL solution (w/w %: 27.51 water, 58.92 PEG 300, 11.48 sodium salt of Formula (Ia), 2.09 poloxamer 188), mean ± SD, n=3
[5] = rat, SC 50 mg/kg, 150 mg/mL solution (w/w %: 26.6 water, 56.97 PEG 300, 13.39 Formula (Ia), 0.57 NaOH, 2.49 poloxamer 188), mean ± SD, n=3
[6] = rat, SC 50 mg/kg, 300 mg/mL solution (w/w %: 9.8 water, 65.0 PEG 300, 25.2 Formula (Ia)), mean ± SD, n=3
[7] = rat, SC 50 mg/kg, 300 mg/mL solution (w/w %: 21.97 water, 47.05 PEG 300, 25.21 Formula (Ia), 1.08 NaOH, 4.69 poloxamer 188), mean ± SD, n=3

## CC(C)(C#Cc1ccc(-c2ccc(Cl)c3c(NS(C)(=O)=O)nn(CC(F)(F)F)c23)c([C@H](Cc2cc(F)cc(F)c2)NC(=O)Cn2nc(C(F)(F)F)c3c2C(F)(F)[C@@H]2C[C@H]32)n1)S(C)(=O)=O [Formula (Ia), N—((S)-1-(3-(4-chloro-3-(methylsulfonamido)-1-(2,2,2-trifluoroethyl)-1H-indazol-7-yl)-6-(3-methyl-3-(methylsulfonyl)but-1-yn-1-yl)pyridin-2-yl)-2-(3,5-difluorophenyl)ethyl)-2-((3bS,4aR)-5,5-difluoro-3-(trifluoromethyl)-3b,4,4a,5-tetrahydro-1H-cyclopropa[3,4]cyclopenta[1,2-c]pyrazol-1-yl)acetamide]
[1]
  concentration at 96 h: 85.2 nM
  concentration at 168 h: 137 nM
  concentration at 336 h: 284 nM
  concentration at 504 h: 281 nM
  concentration at 672 h: 304 nM
  concentration at 840 h: 302 nM
  concentration at 1008 h: 289 nM
  concentration at 1344 h: 278 nM
  concentration at 1680 h: 200 nM
male, Wistar Han, rat, plasma, sc, 50 mg/kg, rat mean, n=3, 1 h, SC 50 mg/kg, 300 mg/mL in 15% water/85% PEG 300
  concentration at 1 h: 8.6 nM
male, Wistar Han, rat, plasma, sc, 50 mg/kg, rat mean, n=3, 3 h, SC 50 mg/kg, 300 mg/mL in 15% water/85% PEG 300
  concentration at 3 h: 21.5 nM
male, Wistar Han, rat, plasma, sc, 50 mg/kg, rat mean, n=3, 8 h, SC 50 mg/kg, 300 mg/mL in 15% water/85% PEG 300
  concentration at 8 h: 32.2 nM
male, Wistar Han, rat, plasma, sc, 50 mg/kg, rat mean, n=3, 24 h, SC 50 mg/kg, 300 mg/mL in 15% water/85% PEG 300
  concentration at 24 h: 48.2 nM
male, Wistar Han, rat, plasma, sc, 50 mg/kg, rat mean, n=3, 48 h, SC 50 mg/kg, 300 mg/mL in 15% water/85% PEG 300
  concentration at 48 h: 70.6 nM
male, Wistar Han, rat, plasma, sc, 50 mg/kg, rat mean, n=3, 72 h, SC 50 mg/kg, 300 mg/mL in 15% water/85% PEG 300
  concentration at 72 h: 67.5 nM
[2]
  concentration at 96 h: 75.8 nM
  concentration at 168 h: 137 nM
  concentration at 336 h: 272 nM
  concentration at 504 h: 292 nM
  concentration at 672 h: 312 nM
  concentration at 840 h: 313 nM
  concentration at 1008 h: 282 nM
  concentration at 1344 h: 253 nM
  concentration at 1680 h: 189 nM
male, Wistar Han, rat, plasma, sc, 50 mg/kg, rat, single SC 50 mg/kg, 300 mg/mL free acid in 85:15 w/w PEG 300:water, mean ± SD, n=3, read-out: AUC0-168h
  AUC(0-t): 13.3 ± 0.3 µM·h
male, Wistar Han, rat, plasma, sc, 50 mg/kg, rat, single SC 50 mg/kg, 300 mg/mL free acid in 85:15 w/w PEG 300:water, mean ± SD, n=3, read-out: AUC0-336h
  AUC(0-t): 47.6 ± 1.2 µM·h
male, Wistar Han, rat, plasma, sc, 50 mg/kg, rat, single SC 50 mg/kg, 300 mg/mL free acid in 85:15 w/w PEG 300:water, mean ± SD, n=3, read-out: AUC0-672h
  AUC(0-t): 146 ± 6 µM·h
Rat #1, SC 50 mg/kg, 300 mg/mL in 15% water/85% PEG 300
  Plasma concentration: BLQ
Rat #2, SC 50 mg/kg, 300 mg/mL in 15% water/85% PEG 300
  Plasma concentration: BLQ
Rat #3, SC 50 mg/kg, 300 mg/mL in 15% water/85% PEG 300
  Plasma concentration: BLQ
rat, SC 50 mg/kg, 50 mg/mL solution (w/w %: 30.07 water, 64.40 PEG 300, 4.68 sodium salt of Formula (Ia), 0.85 poloxamer 188)
  Time plasma concentrations maintained above the target trough concentration of 20 nM: at least 28 days
rat, SC 50 mg/kg, 50 mg/mL solution (w/w %: 30.07 water, 64.40 PEG 300, 4.68 sodium salt of Formula (Ia), 0.85 poloxamer 188), mean ± SD, n=3
  AUC0-28d: 643 ± 75 µM·h
rat, SC 50 mg/kg, 75 mg/mL solution (w/w %: 29.21 water, 62.55 PEG 300, 6.97 sodium salt of Formula (Ia), 1.68 poloxamer 188)
  Time plasma concentrations maintained above the target trough concentration of 20 nM: at least 42 days
[3]
  AUC0-7d: 241 ± 22 µM·h
  AUC0-28d: 690 ± 32 µM·h
rat, SC 50 mg/kg, 100 mg/mL solution (w/w %: 28.36 water, 60.73 PEG 300, 9.23 sodium salt of Formula (Ia), 1.68 poloxamer 188)
  Time plasma concentrations maintained above the target trough concentration of 20 nM: at least 28 days
rat, SC 50 mg/kg, 100 mg/mL solution (w/w %: 28.36 water, 60.73 PEG 300, 9.23 sodium salt of Formula (Ia), 1.68 poloxamer 188), mean ± SD, n=3
  AUC0-28d: 716 ± 62 µM·h
rat, SC 50 mg/kg, 125 mg/mL solution (w/w %: 27.51 water, 58.92 PEG 300, 11.48 sodium salt of Formula (Ia), 2.09 poloxamer 188)
  Time plasma concentrations maintained above the target trough concentration of 20 nM: at least 28 days
[4]
  AUC0-7d: 153 ± 38 µM·h
  AUC0-28d: 673 ± 67 µM·h
rat, SC 50 mg/kg, 150 mg/mL solution (w/w %: 26.6 water, 56.97 PEG 300, 13.39 Formula (Ia), 0.57 NaOH, 2.49 poloxamer 188)
  Time plasma concentrations maintained above the target trough concentration of 20 nM: at least 98 days
[5]
  AUC0-98d: 949 ± 114 µM·h
  AUC0-112d: 963 ± 102 µM·h
rat, SC 50 mg/kg, 150 mg/mL solution (w/w %: 27.92 water, 58.04 PEG 300, 13.47 Formula (Ia), 1.1 NaOH)
  Time plasma concentrations maintained above the target trough concentration of 20 nM: at least 126 days
rat, SC 50 mg/kg, 150 mg/mL solution (w/w %: 27.92 water, 58.04 PEG 300, 13.47 Formula (Ia), 1.1 NaOH), mean ± SD, n=3
  AUC0-98d: 801 ± 119 µM·h
rat, SC 50 mg/kg, 300 mg/mL solution (w/w %: 9.8 water, 65.0 PEG 300, 25.2 Formula (Ia))
  Time plasma concentrations maintained above the target trough concentration of 20 nM: at least 168 days
[6]
  AUC0-98d: 531 ± 30 µM·h
  AUC0-168d: 730 ± 55 µM·h
rat, SC 50 mg/kg, 300 mg/mL solution (w/w %: 21.97 water, 47.05 PEG 300, 25.21 Formula (Ia), 1.08 NaOH, 4.69 poloxamer 188)
  Time plasma concentrations maintained above the target trough concentration of 20 nM: at least 98 days
[7]
  AUC0-98d: 928 ± 175 µM·h
  AUC0-140d: 948 ± 169 µM·h
rat, SC 50 mg/kg, 300 mg/mL solution (w/w %: 23.2 water, 50.0 PEG 300, 25.7 Formula (Ia), 1.1 NaOH)
  Time plasma concentrations maintained above the target trough concentration of 20 nM: at least 126 days
rat, SC 50 mg/kg, 300 mg/mL solution (w/w %: 23.2 water, 50.0 PEG 300, 25.7 Formula (Ia), 1.1 NaOH), mean ± SD, n=3
  AUC0-126d: 698 ± 13 µM·h
rat, SC 50 mg/kg, 400 mg/mL solution in 10% ethanol, 13% water, 77% PEG 200
  Time plasma concentrations maintained above the target trough concentration of 20 nM: at least 84 days
rat, SC 50 mg/kg, 400 mg/mL solution in 10% ethanol, 13% water, 77% PEG 200, mean ± SD, n=3
  AUC0-84d: 404 ± 139 µM·h
rat, single SC 50 mg/kg, 300 mg/mL free acid in 85:15 w/w PEG 300:water, mean ± SD, n=3
  AUC0-1680h: 412 ± 21 µM·h
